Measurements: ChEMBL document CHEMBL5465560, “Selectivity Literature for EUbOPEN Chemogenomic Library” (2024)

Key:
[1] = molecular target: T1, Mitogen-activated protein kinase kinase kinase 3 (Homo sapiens) (UniProt Q99759); experiment: Selectivity interaction (KinomeScan (DiscoverX)) EUB0001049a MAP3K3; settings: at 1 µM
T1 sequence (whole entry): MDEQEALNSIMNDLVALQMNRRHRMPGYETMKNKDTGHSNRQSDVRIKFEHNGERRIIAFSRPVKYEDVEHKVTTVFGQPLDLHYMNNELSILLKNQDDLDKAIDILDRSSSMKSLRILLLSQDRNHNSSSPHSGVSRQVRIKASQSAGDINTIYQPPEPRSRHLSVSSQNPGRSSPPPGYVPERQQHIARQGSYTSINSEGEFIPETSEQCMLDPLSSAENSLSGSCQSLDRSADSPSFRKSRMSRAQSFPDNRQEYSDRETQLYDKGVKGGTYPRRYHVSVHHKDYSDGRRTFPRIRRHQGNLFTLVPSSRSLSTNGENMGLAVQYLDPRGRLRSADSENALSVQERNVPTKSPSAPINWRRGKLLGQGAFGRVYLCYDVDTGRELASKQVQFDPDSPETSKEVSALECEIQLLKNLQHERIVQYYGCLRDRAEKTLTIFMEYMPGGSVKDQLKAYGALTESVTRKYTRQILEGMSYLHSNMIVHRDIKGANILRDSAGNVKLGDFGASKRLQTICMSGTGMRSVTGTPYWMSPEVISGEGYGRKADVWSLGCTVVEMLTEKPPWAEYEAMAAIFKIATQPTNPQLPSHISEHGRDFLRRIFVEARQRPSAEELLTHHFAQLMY

[2] = molecular target: Serine/threonine-protein kinase MARK2 (Homo sapiens) (UniProt Q7KZI7); experiment: Selectivity interaction (KinomeScan (DiscoverX)) EUB0000229b MARK2; settings: at 10 µM
[3] = molecular target: T2, Non-receptor tyrosine-protein kinase TYK2 (Homo sapiens, UniProt P29597); experiment: Selectivity interaction (KinomeScan (DiscoverX)) EUB0000229b TYK2; settings: at 10 µM
[4] = molecular target: RAC-gamma serine/threonine-protein kinase (Homo sapiens, UniProt Q9Y243); experiment: Selectivity interaction (Kinase panel (DSF assay)) EUB0001559a AKT3
[5] = molecular target: T2, Non-receptor tyrosine-protein kinase TYK2; experiment: Selectivity interaction (KinomeScan (DiscoverX)) EUB0000595a TYK2; settings: at 10 µM
[6] = molecular target: Serine/threonine-protein kinase 38 (Homo sapiens) (UniProt Q15208); experiment: Selectivity interaction (KinomeScan (DiscoverX)) EUB0000092b STK38; settings: at 10 µM
[7] = molecular target: Serine/threonine-protein kinase 26 (Homo sapiens, UniProt Q9P289); settings: at 10 µM
[8] = molecular target: Ephrin type-A receptor 7 (Homo sapiens) (UniProt Q15375); experiment: Selectivity interaction (KinomeScan (DiscoverX)) EUB0001619a EPHA7; settings: at 1 µM
[9] = molecular target: Tyrosine-protein kinase Fgr (Homo sapiens) (UniProt P09769); experiment: Selectivity interaction (KinomeScan (DiscoverX)) EUB0000655a FGR; settings: at 10 µM
[10] = molecular target: T3, Serine/threonine-protein kinase TAO2 (Homo sapiens) (UniProt Q9UL54); experiment: Selectivity interaction (KinomeScan (DiscoverX)) EUB0000607a TAOK2; settings: at 10 µM
T3 sequence (whole entry): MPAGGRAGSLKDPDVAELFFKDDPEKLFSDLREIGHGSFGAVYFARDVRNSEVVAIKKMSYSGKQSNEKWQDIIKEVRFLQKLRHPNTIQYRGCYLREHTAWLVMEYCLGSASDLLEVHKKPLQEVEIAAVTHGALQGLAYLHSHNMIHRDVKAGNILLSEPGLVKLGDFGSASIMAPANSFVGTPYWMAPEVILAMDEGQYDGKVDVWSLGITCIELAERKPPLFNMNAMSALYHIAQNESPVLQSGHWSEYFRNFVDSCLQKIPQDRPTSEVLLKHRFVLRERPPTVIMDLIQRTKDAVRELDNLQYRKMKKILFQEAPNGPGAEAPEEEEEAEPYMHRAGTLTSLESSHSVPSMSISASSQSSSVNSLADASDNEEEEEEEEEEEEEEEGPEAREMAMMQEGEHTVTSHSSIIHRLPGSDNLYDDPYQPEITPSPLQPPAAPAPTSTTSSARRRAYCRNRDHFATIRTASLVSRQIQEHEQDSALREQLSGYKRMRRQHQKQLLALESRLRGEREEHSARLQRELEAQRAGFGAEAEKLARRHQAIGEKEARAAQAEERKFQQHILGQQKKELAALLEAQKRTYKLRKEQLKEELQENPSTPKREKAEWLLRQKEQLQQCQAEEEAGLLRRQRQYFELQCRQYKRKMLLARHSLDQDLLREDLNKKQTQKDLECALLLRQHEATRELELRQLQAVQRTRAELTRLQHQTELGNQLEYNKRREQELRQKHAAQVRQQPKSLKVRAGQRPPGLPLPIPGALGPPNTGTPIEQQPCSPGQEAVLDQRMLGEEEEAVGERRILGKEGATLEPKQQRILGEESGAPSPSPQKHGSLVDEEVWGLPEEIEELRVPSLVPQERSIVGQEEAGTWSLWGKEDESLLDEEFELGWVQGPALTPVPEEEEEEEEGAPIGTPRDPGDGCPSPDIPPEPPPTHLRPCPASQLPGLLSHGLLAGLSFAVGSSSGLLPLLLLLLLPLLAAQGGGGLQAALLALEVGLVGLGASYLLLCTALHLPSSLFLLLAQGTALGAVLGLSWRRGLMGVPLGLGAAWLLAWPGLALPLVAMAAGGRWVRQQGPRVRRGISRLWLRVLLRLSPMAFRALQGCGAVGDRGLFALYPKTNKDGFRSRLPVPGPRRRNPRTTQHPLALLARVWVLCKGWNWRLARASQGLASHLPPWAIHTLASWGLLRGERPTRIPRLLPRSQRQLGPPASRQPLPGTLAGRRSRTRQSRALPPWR

[11] = molecular target: CDK3/Cyclin E (Homo sapiens) (UniProt P24864+Q00526); experiment: Selectivity interaction (LanthaScreen Eu Kinase Binding Assay) EUB0001632a CDK3; format: protein-complex assay; settings: at 10 µM
[12] = molecular target: T4, 5-hydroxytryptamine receptor 1A (Homo sapiens) (UniProt P08908); experiment: Selectivity interaction (Panel of non-epigenetic targets (kinases, GPCRs, ion channels, and transporters, Eurofins) ) EUB0000271b HTR1A; settings: at 1 µM
T4 sequence (whole entry): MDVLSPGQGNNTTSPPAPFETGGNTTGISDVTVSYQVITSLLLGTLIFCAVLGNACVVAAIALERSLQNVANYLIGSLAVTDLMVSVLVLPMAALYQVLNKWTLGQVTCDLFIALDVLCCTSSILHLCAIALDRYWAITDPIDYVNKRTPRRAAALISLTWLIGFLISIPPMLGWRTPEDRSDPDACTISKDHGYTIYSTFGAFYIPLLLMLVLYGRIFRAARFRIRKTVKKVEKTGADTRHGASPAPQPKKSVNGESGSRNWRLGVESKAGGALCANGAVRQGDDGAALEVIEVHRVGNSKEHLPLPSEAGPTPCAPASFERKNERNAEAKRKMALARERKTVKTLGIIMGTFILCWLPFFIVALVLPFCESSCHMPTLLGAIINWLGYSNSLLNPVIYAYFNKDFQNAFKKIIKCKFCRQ

T2 sequence (P29597 whole entry): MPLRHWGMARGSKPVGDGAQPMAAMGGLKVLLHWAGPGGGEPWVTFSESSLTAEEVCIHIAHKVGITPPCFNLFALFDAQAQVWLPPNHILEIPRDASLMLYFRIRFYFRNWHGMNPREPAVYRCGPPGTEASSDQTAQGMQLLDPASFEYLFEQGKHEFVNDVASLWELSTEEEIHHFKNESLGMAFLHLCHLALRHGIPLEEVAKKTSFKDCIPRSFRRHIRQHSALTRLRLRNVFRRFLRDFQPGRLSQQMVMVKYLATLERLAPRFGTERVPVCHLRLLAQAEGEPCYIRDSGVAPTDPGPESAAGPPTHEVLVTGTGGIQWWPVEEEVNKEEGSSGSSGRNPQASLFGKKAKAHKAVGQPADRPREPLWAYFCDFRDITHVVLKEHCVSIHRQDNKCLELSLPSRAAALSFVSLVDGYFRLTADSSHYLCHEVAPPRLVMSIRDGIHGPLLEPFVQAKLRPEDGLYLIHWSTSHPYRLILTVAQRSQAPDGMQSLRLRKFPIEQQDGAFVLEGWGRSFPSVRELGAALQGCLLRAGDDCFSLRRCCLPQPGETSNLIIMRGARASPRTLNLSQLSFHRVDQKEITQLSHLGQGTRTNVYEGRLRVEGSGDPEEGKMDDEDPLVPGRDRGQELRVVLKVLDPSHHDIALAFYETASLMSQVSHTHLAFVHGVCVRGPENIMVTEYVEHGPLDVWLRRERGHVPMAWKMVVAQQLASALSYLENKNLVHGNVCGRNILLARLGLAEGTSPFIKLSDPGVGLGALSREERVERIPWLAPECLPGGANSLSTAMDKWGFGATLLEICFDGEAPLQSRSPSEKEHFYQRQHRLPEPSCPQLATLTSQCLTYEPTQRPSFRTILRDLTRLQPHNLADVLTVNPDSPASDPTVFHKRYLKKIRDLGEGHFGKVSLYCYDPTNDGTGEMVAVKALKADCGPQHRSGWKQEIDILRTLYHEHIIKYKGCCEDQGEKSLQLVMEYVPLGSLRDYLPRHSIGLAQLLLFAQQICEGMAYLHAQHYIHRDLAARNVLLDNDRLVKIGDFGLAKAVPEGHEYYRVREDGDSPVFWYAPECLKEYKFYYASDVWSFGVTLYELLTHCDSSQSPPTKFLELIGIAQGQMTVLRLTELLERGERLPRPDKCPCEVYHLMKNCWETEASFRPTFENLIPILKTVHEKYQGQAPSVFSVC
Chain of CDK3/Cyclin E (Homo sapiens) (P24864 whole entry, looked up): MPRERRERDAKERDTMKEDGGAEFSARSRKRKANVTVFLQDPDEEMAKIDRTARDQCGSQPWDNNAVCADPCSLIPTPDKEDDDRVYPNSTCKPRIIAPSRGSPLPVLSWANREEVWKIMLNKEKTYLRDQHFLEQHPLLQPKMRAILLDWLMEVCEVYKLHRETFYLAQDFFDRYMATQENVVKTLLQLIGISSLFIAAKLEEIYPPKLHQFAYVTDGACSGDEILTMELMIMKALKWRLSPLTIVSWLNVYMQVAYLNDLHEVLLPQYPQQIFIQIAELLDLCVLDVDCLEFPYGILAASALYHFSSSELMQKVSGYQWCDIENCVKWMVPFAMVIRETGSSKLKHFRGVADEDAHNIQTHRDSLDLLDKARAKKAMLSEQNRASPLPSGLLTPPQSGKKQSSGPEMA
Chain of CDK3/Cyclin E (Homo sapiens) (Q00526 whole entry, looked up): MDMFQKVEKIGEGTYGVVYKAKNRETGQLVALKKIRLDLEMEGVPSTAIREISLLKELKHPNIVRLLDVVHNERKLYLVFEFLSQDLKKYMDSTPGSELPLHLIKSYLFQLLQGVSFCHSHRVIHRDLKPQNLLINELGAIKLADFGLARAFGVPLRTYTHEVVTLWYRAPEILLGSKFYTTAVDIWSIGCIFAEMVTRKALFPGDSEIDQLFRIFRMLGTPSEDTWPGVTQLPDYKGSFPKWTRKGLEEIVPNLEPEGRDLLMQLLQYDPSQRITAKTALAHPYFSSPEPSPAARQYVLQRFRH
Chain of RAC-gamma serine/threonine-protein kinase (Q9Y243 whole entry): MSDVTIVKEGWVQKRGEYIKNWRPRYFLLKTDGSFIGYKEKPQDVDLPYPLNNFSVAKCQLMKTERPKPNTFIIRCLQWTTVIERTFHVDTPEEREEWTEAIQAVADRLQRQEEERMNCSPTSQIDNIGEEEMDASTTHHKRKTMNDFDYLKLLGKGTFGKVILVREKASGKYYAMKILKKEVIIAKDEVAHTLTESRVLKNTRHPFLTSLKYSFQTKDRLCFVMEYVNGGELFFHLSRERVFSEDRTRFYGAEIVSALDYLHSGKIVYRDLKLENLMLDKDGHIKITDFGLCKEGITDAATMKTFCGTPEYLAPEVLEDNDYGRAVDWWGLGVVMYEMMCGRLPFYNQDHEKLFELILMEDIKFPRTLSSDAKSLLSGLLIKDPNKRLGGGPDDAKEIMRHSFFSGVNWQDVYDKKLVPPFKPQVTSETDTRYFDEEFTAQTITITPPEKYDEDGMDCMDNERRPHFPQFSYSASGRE
Chain of Serine/threonine-protein kinase MARK2 (Homo sapiens) (Q7KZI7 whole entry): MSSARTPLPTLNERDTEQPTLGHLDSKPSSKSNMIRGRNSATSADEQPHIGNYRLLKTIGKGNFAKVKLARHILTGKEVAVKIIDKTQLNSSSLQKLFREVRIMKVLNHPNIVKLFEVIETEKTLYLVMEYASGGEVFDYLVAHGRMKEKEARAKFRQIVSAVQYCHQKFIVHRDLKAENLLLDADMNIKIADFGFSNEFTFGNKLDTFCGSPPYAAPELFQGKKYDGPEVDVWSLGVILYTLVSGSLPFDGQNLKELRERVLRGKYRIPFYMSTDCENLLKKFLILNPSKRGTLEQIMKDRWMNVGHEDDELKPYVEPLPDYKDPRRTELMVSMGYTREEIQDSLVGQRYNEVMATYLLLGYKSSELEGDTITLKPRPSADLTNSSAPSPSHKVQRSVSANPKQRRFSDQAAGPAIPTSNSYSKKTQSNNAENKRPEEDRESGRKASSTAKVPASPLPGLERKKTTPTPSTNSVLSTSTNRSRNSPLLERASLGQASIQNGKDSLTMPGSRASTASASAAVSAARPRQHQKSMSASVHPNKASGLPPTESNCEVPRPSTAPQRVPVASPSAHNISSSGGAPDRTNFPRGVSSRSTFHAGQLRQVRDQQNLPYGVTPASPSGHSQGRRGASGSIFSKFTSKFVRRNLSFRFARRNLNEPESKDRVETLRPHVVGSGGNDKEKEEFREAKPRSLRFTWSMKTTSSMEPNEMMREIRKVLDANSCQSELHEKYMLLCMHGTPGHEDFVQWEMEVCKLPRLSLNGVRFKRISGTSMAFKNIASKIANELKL
Chain of Tyrosine-protein kinase Fgr (Homo sapiens) (P09769 2-529 limits assumed): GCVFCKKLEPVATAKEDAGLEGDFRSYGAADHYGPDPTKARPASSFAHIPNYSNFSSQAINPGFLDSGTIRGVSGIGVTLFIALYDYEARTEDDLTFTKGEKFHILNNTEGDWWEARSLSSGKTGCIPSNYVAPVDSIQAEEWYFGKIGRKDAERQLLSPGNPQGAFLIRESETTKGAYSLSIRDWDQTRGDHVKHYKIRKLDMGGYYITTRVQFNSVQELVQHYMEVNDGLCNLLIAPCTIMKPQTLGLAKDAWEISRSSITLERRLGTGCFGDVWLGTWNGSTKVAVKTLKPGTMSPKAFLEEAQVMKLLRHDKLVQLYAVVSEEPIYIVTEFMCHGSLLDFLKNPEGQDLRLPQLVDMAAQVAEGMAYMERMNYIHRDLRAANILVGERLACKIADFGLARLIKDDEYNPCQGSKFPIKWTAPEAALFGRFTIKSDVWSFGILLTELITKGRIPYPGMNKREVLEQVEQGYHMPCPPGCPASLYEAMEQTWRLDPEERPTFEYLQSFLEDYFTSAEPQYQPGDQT
Chain of Serine/threonine-protein kinase 26 (Q9P289 2-416 limits assumed): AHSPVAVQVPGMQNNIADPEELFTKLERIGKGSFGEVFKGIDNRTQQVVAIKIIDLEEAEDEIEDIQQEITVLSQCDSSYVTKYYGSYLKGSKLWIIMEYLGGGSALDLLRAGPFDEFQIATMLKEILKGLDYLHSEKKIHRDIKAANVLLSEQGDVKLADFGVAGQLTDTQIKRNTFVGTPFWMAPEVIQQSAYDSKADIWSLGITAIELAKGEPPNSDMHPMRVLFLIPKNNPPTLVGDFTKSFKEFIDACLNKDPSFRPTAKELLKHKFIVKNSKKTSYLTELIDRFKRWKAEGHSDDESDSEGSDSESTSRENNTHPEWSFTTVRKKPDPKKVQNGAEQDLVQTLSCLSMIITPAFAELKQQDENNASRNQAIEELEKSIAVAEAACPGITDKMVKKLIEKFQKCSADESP
Chain of Serine/threonine-protein kinase 38 (Homo sapiens) (Q15208 2-465 limits assumed): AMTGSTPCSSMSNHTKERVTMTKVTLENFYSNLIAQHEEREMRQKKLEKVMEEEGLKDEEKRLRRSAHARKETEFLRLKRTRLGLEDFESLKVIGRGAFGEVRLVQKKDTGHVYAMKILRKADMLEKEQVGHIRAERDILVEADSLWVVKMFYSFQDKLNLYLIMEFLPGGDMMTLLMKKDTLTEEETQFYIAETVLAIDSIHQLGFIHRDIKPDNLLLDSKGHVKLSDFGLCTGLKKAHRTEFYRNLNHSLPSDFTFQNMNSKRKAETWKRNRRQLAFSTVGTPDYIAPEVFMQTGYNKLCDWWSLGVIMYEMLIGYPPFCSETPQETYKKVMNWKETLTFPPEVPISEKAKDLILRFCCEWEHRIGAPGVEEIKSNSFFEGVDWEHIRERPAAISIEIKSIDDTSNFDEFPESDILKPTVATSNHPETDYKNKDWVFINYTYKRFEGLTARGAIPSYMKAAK

Compound `COc1cc(Nc2nc(C)cc(-c3cnn4nc(OC)ccc34)n2)cc(C(F)(F)F)c1` has a % of control [1] of 72%.
In the case of `COc1cc(N(C)c2ccnc3ccc(C(F)(F)F)cc23)cc(OC)c1OC`, the % binding [2] is reported as 85% and the % binding [3] is reported as 99%.
`CN(C(=O)c1cnn2cccnc12)c1cc2c(cc1N1CCOCC1)C(=O)N(C[C@@H](F)C(C)(C)O)C2` gave a dTM [4] of 0 K.
`COCC(=O)NC/C=C/c1ccc2ncnc(Nc3ccc(Oc4ccc(C)nc4)c(C)c3)c2c1` [CP-724714] was tested, and the % of control [5] was 24%.
`CCC(=O)N1CCN(c2ccc(-n3c(=O)ccc4cnc5ccc(-c6cnc7ccccc7c6)cc5c43)cc2C(F)(F)F)CC1` was tested, and the % of control [6] was 100%.
For `Cc1cc([C@@H](C)Nc2ccccc2C(=O)O)c2nc(N3CCOCC3)cc(=O)n2c1` [AZD-6482], the % of control [7] was 100%.
Work on `N#Cc1cccc(-c2c[nH]c3ncnc(N4CCOCC4)c23)c1` yielded a % of control [8] of 100%.
`CN(C)CCOc1ccc(-c2nc(-c3ccncc3)c(-c3ccc4c(c3)CC/C4=N\O)[nH]2)cc1` showed a % of control [9] of 87%.
Compound `CNC(=O)Nc1ccc(-c2nc(N3CC4CCC(C3)O4)c3cnn(C4CCC5(CC4)OCCO5)c3n2)cc1` has a % of control [10] of 100%.
`Cn1cc(-n2cnc3c(NCc4nc5cc(Cl)c(Cl)cc5[nH]4)nc(N4CCOCC4)nc32)cn1` showed a % of inhibition [11] of -151%.
`Cc1cc(C)cc([C@@H]2c3cc(C)ccc3NC(=O)CN2C(=O)c2ccc(Br)s2)c1` was tested, and the % of inhibition [12] was 5%.
